Data on 36 compounds can be found in patent US20240245673A1, “Papain-like protease (PLpro) inhibitors” (Pfizer Inc., priority 2022, published 2024).

Some results are limits rather than exact numbers.

The target of one experiment is SARS-CoV-2 Papain like protease (PLpro) (Severe acute respiratory syndrome coronavirus 2 (2019-nCoV) (SARS-CoV-2), UniProt P0DTD1). Put plainly: Papain Like Protease (PLpro) biochemical assay with profluorogenic substrate Z-RLRGG-AMC. Conditions: IC50 (μM), SARS-CoV-2 PLpro 6.25 nM, 25 μM Z-RLRGG-AMC substrate, 60 minute reaction.
`Cc1ccc(N2CC3CC(C2)N3)cc1C(=O)NC1(c2cc(-c3cnn(C)c3)nc3ccccc23)CC1` [Example 289, 5-(3,6-diazabicyclo[3.1.1]heptan-3-yl)-2-methyl-N-(1-(2-(1-methyl-1H-pyrazol-4-yl)quinolin-4-yl)cyclopropyl)benzamide] gave an IC50 of 0.001 µM.

Staying with this experiment, now noted: SARS-CoV-2 PLpro 6.25 nM, 25 μM Z-RLRGG-AMC substrate, 60 minute reaction; read-out: IC50.
Regarding `Cc1ccccc1C(=O)NC(C)c1cc(NCc2cnco2)nc2ccccc12` (stereo not drawn) [Example 139, 2-methyl-N-[1-(2-{[(1,3-oxazol-5-yl)methyl]amino}-quinolin-4-yl)ethyl]benzamide], the IC50 was 0.675 µM.
On to `COC[C@@H](OCc1cscn1)c1ccc(C(=O)N[C@H](C)c2cc(-c3cnn(C)c3)nc3ccccc23)c(C)c1` (single isomer, unassigned) [Example 332, 4-((R*)-2-methoxy-1-(thiazol-4-ylmethoxy)ethyl)-2-methyl-N-((R)-1-(2-(1-methyl-1H-pyrazol-4-yl)quinolin-4-yl)ethyl)benzamide], for which the half-maximal inhibitory concentration (IC50) came to 0.002 µM.
Still for that read-out and setting: to `Cc1cc(CN(C)C(=O)c2ncc[nH]2)ccc1C(=O)N[C@H](C)c1cc(-c2cnn(C)c2)nc2ccccc12` [Example 265, (R)-N-methyl-N-(3-methyl-4-((1-(2-(1-methyl-1H-pyrazol-4-yl)quinolin-4-yl)ethyl)carbamoyl)benzyl)-1H-imidazole-2-carboxamide] belongs 0.14 µM; to `COC[C@H](OCc1cocn1)c1ccc(C(=O)NC2(c3cc(-c4cnn(C)c4)cc4ncccc34)CC2)c(C)c1` (single isomer, unassigned) [Example 340], 0.002 µM; to `Cn1cc(-c2cc(C3(NC(=O)c4ccccc4CCC(=O)NNC(=O)/C=C/C(N)=O)CC3)c3ccccc3n2)cn1` [Example 226, (E)-2-(3-(2-(4-amino-4-oxobut-2-enoyl)hydrazineyl)-3-oxopropyl)-N-(1-(2-(1-methyl-1H-pyrazol-4-yl)quinolin-4-yl)cyclopropyl)benzamide], 0.017 µM.
The same measure, in the same setting: the same measure for `Cc1cc(CC(=O)Nc2cscn2)ccc1C(=O)NC1(c2cc(-c3cnn(C)c3)nc3ccccc23)CC1` [Example 313, 2-methyl-N-(1-(2-(1-methyl-1H-pyrazol-4-yl)quinolin-4-yl)cyclopropyl)-4-(2-oxo-2-(thiazol-4-ylamino)ethyl)benzamide]: 0.004 µM; for `COC[C@H](OCc1cocn1)c1ccc(C(=O)NC2(c3cc(-c4cnn(C)c4)cc4ncccc34)CC2)c(C)c1` (single isomer, unassigned) [Example 356]: 0.002 µM; for `COC[C@@H](OCc1cocn1)c1ccc(C(=O)NC2(c3cc(-c4cc(C(=O)N(C)C)n[nH]4)cc4ncccc34)CC2)c(C)c1` (single isomer, unassigned) [Example 360]: 0.001 µM.
The same measure, in the same setting: to `Cc1ccccc1C(=O)NC(C)c1cc(-c2cc(C3CC3)nn2C)nc2ccccc12` (stereo not drawn) [Example 107, N-{1-[2-(3-cyclopropyl-1-methyl-1H-pyrazol-5-yl)quinolin-4-yl]ethyl}-2-methylbenzamide] belongs 0.757 µM.
As to `Cc1ccccc1C(=O)NC(C)c1cc(-c2cccnc2)nc2ccccc12` (stereo not drawn) [Example 114, 2-methyl-N-{1-[2-(pyridin-3-yl)quinolin-4-yl]ethyl}benzamide], the 50% inhibitory concentration (IC50) was determined as 0.877 µM.
The same measure, in the same setting: to `Cc1cc(CNCc2cncn2C)ccc1C(=O)N[C@H](C)c1cc(-c2cnn(C)c2)nc2ccccc12` [Example 221, (R)-2-methyl-4-((((1-methyl-1H-imidazol-5-yl)methyl)amino)methyl)-N-(1-(2-(1-methyl-1H-pyrazol-4-yl)quinolin-4-yl)ethyl)benzamide] belongs 0.015 µM; to `Cc1ccccc1C(=O)NC(C)c1cc(-c2cnn(C)c2C)nc2ccccc12` (stereo not drawn) [Example 129, N-{1-[2-(1,5-dimethyl-1H-pyrazol-4-yl)quinolin-4-yl]ethyl}-2-methylbenzamide], 0.666 µM; to `COc1cc(-c2cc(C(C)NC(=O)c3ccccc3C)c3ccccc3n2)ccn1` (stereo not drawn) [Example 109], 0.28 µM.
On the same count and under the same terms, the same measure for `Cc1ccc(CN)cc1C(=O)N[C@H](C)c1cc(-c2cc(C(=O)N(C)C)c[nH]2)nc2ccccc12` [Example 56, 5-{4-[(1R)-1-{[5-(aminomethyl)-2-methylphenyl]formamido}ethyl]quinolin-2-yl}-N,N-dimethyl-1H-pyrrole-3-carboxamide]: 0.02 µM; for `Cc1ccc(CN)cc1C(=O)NC(C)c1cc(-c2cnn(C)c2)c(O)c2ccccc12` (stereo not drawn) [Example 217, 5-(aminomethyl)-N-(1-(4-hydroxy-3-(1-methyl-1H-pyrazol-4-yl)naphthalen-1-yl)ethyl)-2-methylbenzamide]: 0.119 µM; for `Cc1ccc(NC(=O)[C@H]2CCCCN2)cc1C(=O)N[C@H](C)c1cc(-c2ccn[nH]2)cc2ccccc12` (single isomer, unassigned) [Example 69]: 0.908 µM.
Regarding `Cc1cc(COCc2cscn2)ccc1C(=O)NC1(c2cc(-c3cnn(CS(C)(=O)=O)c3)nc3ccccc23)CC1` [Example 341, 2-methyl-N-(1-(2-(1-((methylsulfonyl)methyl)-1H-pyrazol-4-yl)quinolin-4-yl)cyclopropyl)-4-((thiazol-4-ylmethoxy)methyl)benzamide], the IC50 is < 0.001 µM.
Same read-out and setting: to `Cc1ccccc1C(=O)N[C@H](C)c1cc(-c2ccn[nH]2)nc2ccccc12` [Example 48, (R)—N-(1-(2-(1H-pyrazol-5-yl)quinolin-4-yl)ethyl)-2-methylbenzamide] belongs 0.28 µM; to `Cc1ccc(NC(=O)[C@H]2CCCCN2)cc1C(=O)N[C@H](C)c1cc(N)nc2ccccc12` (single isomer, unassigned) [Example 27, (R)—N-(3-(((R*)-1-(2-aminoquinolin-4-yl)ethyl)carbamoyl)-4-methylphenyl)piperidine-2-carboxamide], 0.057 µM.
Same read-out and setting: the same measure for `Cc1cc(CNCc2cscn2)ccc1C(=O)N[C@H](C)c1cc(-c2cnn(C)c2)nc2ccccc12` [Example 74, (R)-2-methyl-N-(1-(2-(1-methyl-1H-pyrazol-4-yl)quinolin-4-yl)ethyl)-4-(((thiazol-4-ylmethyl)amino)methyl)benzamide]: 0.008 µM; for `Cc1ccc(CN)cc1C(=O)NC(C)c1cc(-n2cnnc2C(N)=O)nc2ccccc12` (stereo not drawn) [Example 33, 4-(4-(1-(5-(aminomethyl)-2-methylbenzamido)ethyl)quinolin-2-yl)-4H-1,2,4-triazole-3-carboxamide]: 1.36 µM; for `Cc1ccc(C(N)=O)cc1C(=O)NC(C)c1cc(-n2ccnn2)cc2ccccc12` (stereo not drawn) [Example 1, N^1-(1-(3-(1H-1,2,3-triazol-1-yl)naphthalen-1-yl)ethyl)-6-methylisophthalamide]: 1.79 µM.
In the case of `Cc1ccc(CN)cc1C(=O)NC(C)c1cc(N2CCCC2=O)nc2ccccc12` (stereo not drawn) [Example 34, 5-(aminomethyl)-2-methyl-N-(1-(2-(2-oxopyrrolidin-1-yl)quinolin-4-yl)ethyl)benzamide], the IC50 is 1.45 µM.
Regarding `CNCc1ccc(C)c(C(=O)N[C@H](C)c2cc(-c3cnn(C)c3)nc3ccccc23)c1` [Example 13, (R)-2-methyl-N-(1-(2-(1-methyl-1H-pyrazol-4-yl)quinolin-4-yl)ethyl)-5-((methylamino)methyl)benzamide], the IC50 stood at 0.024 µM.
The same measure, in the same setting: to `Cc1cc(C(C)(C)NC(=O)c2cscn2)ccc1C(=O)N[C@H](C)c1cc(-c2cnn(C)c2)nc2ccccc12` [Example 214, (R)-N-(2-(3-methyl-4-((1-(2-(1-methyl-1H-pyrazol-4-yl)quinolin-4-yl)ethyl)carbamoyl)phenyl)propan-2-yl)thiazole-4-carboxamide] belongs 0.169 µM; to `Cc1ccc(NC(=O)[C@H]2CCCCN2)cc1C(=O)N[C@H](C)c1cc(-c2cnn(C)c2)cc2ccccc12` (single isomer, unassigned) [Example 66], 0.008 µM; to `Cc1ccccc1C(=O)NC(C)c1cc(-c2ccc3oc(=O)[nH]c3c2)nc2ccccc12` (stereo not drawn) [Example 116, 2-methyl-N-{1-[2-(2-oxo-2,3-dihydro-1,3-benzoxazol-5-yl)quinolin-4-yl]ethyl} benzamide], 0.406 µM.
Consider `Cc1ccc(CNS(C)(=O)=O)cc1C(=O)N[C@H](C)c1cc(-c2cnn(C)c2)nc2ccccc12` [Example 61], for which the half-maximal inhibitory concentration (IC50) is 0.046 µM.
Take `Cc1ccc(N2CCN(C)CC2)cc1C(=O)NC(C)c1cc(-c2cc(C(=O)N(C)C)c[nH]2)cc2ccccc12` (stereo not drawn) [Example 229, N,N-dimethyl-5-(4-(1-(2-methyl-5-(4-methylpiperazin-1-yl)benzamido)ethyl)naphthalen-2-yl)-1H-pyrrole-3-carboxamide]: the IC50 came out at 0.006 µM.
Still for that read-out and setting: the same measure for `Cc1cc(C(=O)NCc2ncsc2C)ccc1C(=O)N[C@H](C)c1cc(-c2cnn(C)c2)nc2ccccc12` [Example 203]: 0.002 µM; for `Cc1ccc(NC(=O)[C@H]2CCCCN2)cc1C(=O)N[C@H](C)c1cc(-c2cnn(C)c2)nc2ccccc12` [Example 14, (R)-N-(4-methyl-3-(((R)-1-(2-(1-methyl-1H-pyrazol-4-yl)quinolin-4-yl)ethyl)carbamoyl)phenyl)piperidine-2-carboxamide]: 0.019 µM; for `Cc1cc(COCc2cscn2)ccc1C(=O)NC1(c2cc(-c3cnn(CC(=O)N(C)C)c3)nc3ccccc23)CC1` [Example 342, N-(1-(2-(1-(2-(dimethylamino)-2-oxoethyl)-1H-pyrazol-4-yl)quinolin-4-yl)cyclopropyl)-2-methyl-4-((thiazol-4-ylmethoxy)methyl)benzamide]: < 0.001 µM.
As to `Cc1cc(CC(=O)Nc2nccs2)ccc1C(=O)N[C@H](C)c1cc(-c2cnn(C)c2)nc2ccccc12` [Example 238, (R)-2-methyl-N-(1-(2-(1-methyl-1H-pyrazol-4-yl)quinolin-4-yl)ethyl)-4-(2-oxo-2-(thiazol-2-ylamino)ethyl)benzamide], the concentration for half-maximal inhibition (IC50) was determined as 0.016 µM.
As for `Cc1cc(C(=O)NC(C)c2cscn2)ccc1C(=O)N[C@H](C)c1cc(-c2cnn(C)c2)nc2ccccc12` (stereo partly drawn) [Example 202], the concentration for half-maximal inhibition (IC50) is 0.012 µM.
For the compound `Cc1ccccc1C(=O)NC(C)c1cc(-c2cn[nH]c2)nc2ccccc12` (stereo not drawn) [Example 101, 2-methyl-N-{1-[2-(1H-pyrazol-4-yl)quinolin-4-yl]ethyl}benzamide], the IC50 was found to be 0.198 µM.
